{"source": "patent US7901712B2", "about": "“Gliclazide nanosphere and manufacturing method therefor and application thereof” (Kaoshiung Medical University, priority 2006, dated 2011)", "key": {"[1]": {"experiment": "Particle size measurement by photon correlation spectroscopy", "assay_type": "physicochemical", "details": "PCS, diluted in ethylene glycol, n = 3", "protocol": "The average particle size of GL nanoparticles, GL solid complexes, the β-CD and the gliclazide pure drug were measured by the method of photon correlation spectroscopy (PCS) using Malvern Zetasizer 3000HSA (Malvern Worcestershire, UK). Prior to measurements, about 50 mg of each sample were diluted with 100 ml of ethylene glycol. The sizes of the above-mentioned four particle distributions were estimated by setting the intensity of the scattered light at λ=750 nm and the scattering angle at θ=90°. The background medium, i.e. the ethylene glycol (η=16.1 mPa·s) with the refractive index thereof being 1.431."}, "[2]": {"experiment": "In vitro dissolution test, USP 24 paddle apparatus", "assay_type": "physicochemical", "details": "37°C; for DP (dissolved percentage): deionized water", "protocol": "According to the USP 24 paddle apparatus, in vitro dissolution tests are performed with Hanson SR8 Plus (Chatsworth, USA). Three samples containing 80 mg of GL pure drug, GL solid complexes with an equivalent amount of GLs and GL nanospheres with an equivalent amount of GLs are poured separately into 900 ml deionized water at 37±0.5° C. with stirring rate at 100 rpm. Afterwards, 0.2 ml of each sample was withdrawn respectively at 1, 3, 5, 10, 15, 30, 60 and 120 min by the Waters transfer module (Milford, USA). Subsequently, the concentration of the samples was assayed using the HPLC method. The dissolution profiles are evaluated by the dissolution efficiency (DE) parameter (Khan, 1975) and the dissolved percentage (DP). The DE of GL pure drug, GL nanospheres and GL solid complex are calculated from the following equation (3).\nwherein, y represents the percentage of dissolved product;\nt1 and t2 represents the two different time points\ny100 represents the maximum percentage of the dissolved sample"}, "[3]": {"details": "5 min, 900 ml deionized water, 100 rpm, 80 mg GL equivalent, n = 6"}, "[4]": {"details": "30 min, 900 ml deionized water, 100 rpm, n = 6"}, "[5]": {"details": "60 min, 900 ml deionized water, 100 rpm, n = 6"}}}
{"compound": "Cc1ccc(S(=O)(=O)NC(=O)NN2CC3CCCC3C2)cc1", "note": "(stereo not shown) [GL]", "values": [{"measurement": "Mean size ± S.D.", "setting": "[1]", "value": "47.56 ± 2.11", "unit": "μm"}, {"measurement": "DE5 (dissolution efficiency)", "setting": "[2]; [3]", "value": 0.0129}, {"measurement": "DP5 (dissolved percentage)", "setting": "[2]; [3]", "value": 1.44}, {"measurement": "DE30 (dissolution efficiency)", "setting": "[2]; [4]", "value": 0.0229}, {"measurement": "DP30 (dissolved percentage)", "setting": "[2]; [4]", "value": 3.84}, {"measurement": "DE60 (dissolution efficiency)", "setting": "[2]; [5]", "value": 0.0416}, {"measurement": "DP60 (dissolved percentage)", "setting": "[2]; [5]", "value": 8.23}, {"measurement": "DP (dissolved percentage)", "setting": "[2]; after 60 minutes", "value": 8.23, "unit": "%"}, {"measurement": "DP (dissolved percentage)", "setting": "[2]; after five minutes", "value": 1.44, "unit": "%"}]}
{"compound": "OC[C@H]1O[C@@H]2O[C@H]3[C@H](O)[C@@H](O)[C@@H](O[C@H]4[C@H](O)[C@@H](O)[C@@H](O[C@H]5[C@H](O)[C@@H](O)[C@@H](O[C@H]6[C@H](O)[C@@H](O)[C@@H](O[C@H]7[C@H](O)[C@@H](O)[C@@H](O[C@H]8[C@H](O)[C@@H](O)[C@@H](O[C@H]1[C@H](O)[C@H]2O)O[C@@H]8CO)O[C@@H]7CO)O[C@@H]6CO)O[C@@H]5CO)O[C@@H]4CO)O[C@@H]3CO", "note": "[β-CD]", "values": [{"measurement": "Mean size ± S.D.", "setting": "[1]", "value": "161.03±3.12", "unit": "μm"}]}
